Test results reported in patent publication US4738979A, “α2 -blocking derivatives of imidazole” (G. D. Searle & Co., priority 1985, dated 1988).
Entries after “also recorded” stand apart in the source; their conditions may differ. Where two headings read alike, the source gives them in different places.

Assays:
[1] = acute toxicity after oral administration to mice (LD50); conditions: mouse, in vivo, 15 days mortality
Procedure: The acute toxicity of the compounds of the present invention was studied after oral administration to mice. The products to be tested, suspended in a 1% tragacanth gum mucilage, were administered by means of an intragastric probe to groups of three male mice which had fasted since the preceding day. The doses tested are a function of the effect observed and can vary from 3,000 to 3 mg/kg or less. The mortality was recorded for 15 days. The lethal dose for 50% of the animals (LD50) was calculated according to the method of J. Litchfield and F. Wilcoxon, J. Pharmacol. Exp. Ther., 96, 99 (1949) and expressed in mg/kg. The effect of the products on the behaviour of the animals is observed until 5 to 6 hours after the treatment indicated above and after 24 hours, using a method derived from that of S. Irwin, described by R. A. Turner, Screening Methods in Pharmacology, Chapter 3, pages 22-34, Academic Press, 1965. If anomalies are noted, the observation is prolonged and smaller doses are tested.

α1 -adrenergic receptors = assay: binding to α1-adrenergic receptors on rat brain homogenates (3H-WB 4101); conditions: 1.6 nM 3H-WB 4101
Procedure: (§1) The activity of the compounds according to the invention with respect to binding of the α-adrenergic receptors was determined in vitro according to a method deriving from the works of B. R. Rouot et al., Life Sci., 25, 769 (1979) and of D. U'Prichard et al., Mol. Pharmacol., 13, 454 (1977). This method consists in measuring the binding to the receptor on rat brain homogenates, by marking by means of a specific tritriated ligand placed in competition with the product to be tested.
(§2) In the presenct case the binding to the α1 -adrenergic receptors was measured by means of 1.6 nM of ^3 H-WB 4101 and the binding to the α2 -adrenergic receptors by means of 0.7 nM of ^3 H-p. aminoclonidine, the non-specific binding being determined by 1,000 nM of phentolamine. The results are given in Table II, column 3, and are expressed in terms of percentage of inhibition of the specific binding of 10^-7 molar compound concentration.
(§3) (2) The specific binding is the total binding less the nonspecific
(§4) binding. The total binding is the binding in the absence of nonradioactiv
(§5) drug. The nonspecific binding is the binding in the presence of 1,000 nM
(§6) of phentolamine. The products of the invention are tested at a
(§7) concentration of 10^-7 molar.

α2 -adrenergic receptors = biological target: T1, α2 -adrenergic receptors (Rattus norvegicus, UniProt P22909); assay: binding to α2-adrenergic receptors on rat brain homogenates (3H-p. aminoclonidine); conditions: 10^-7 M; for inhibition at 0.1 µM: rat brain homogenates, 0.7 nM 3H-p. aminoclonidine, read-out: % Inhibition of the Specific Binding at 10^-7 M for α2 Recep.; for affinity for α2 receptors (in words): in vitro binding assay
T1 construct: from tissue; host or cells: rat brain homogenates
T1 sequence (P22909 1-465): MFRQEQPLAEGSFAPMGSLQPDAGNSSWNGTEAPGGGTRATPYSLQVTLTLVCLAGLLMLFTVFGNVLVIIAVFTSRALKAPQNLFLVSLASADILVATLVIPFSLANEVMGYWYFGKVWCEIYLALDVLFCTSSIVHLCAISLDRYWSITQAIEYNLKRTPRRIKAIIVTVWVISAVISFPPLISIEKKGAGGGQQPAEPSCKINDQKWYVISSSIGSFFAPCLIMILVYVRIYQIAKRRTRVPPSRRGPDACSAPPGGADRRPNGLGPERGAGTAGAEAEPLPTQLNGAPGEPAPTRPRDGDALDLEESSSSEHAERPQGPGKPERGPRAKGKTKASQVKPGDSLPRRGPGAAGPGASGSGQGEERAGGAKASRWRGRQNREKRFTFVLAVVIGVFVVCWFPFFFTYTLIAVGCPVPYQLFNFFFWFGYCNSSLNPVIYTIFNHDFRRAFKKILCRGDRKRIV
Procedure: as §1, §2, §3, §4, §5, §6, §7

[2] = system: 3-mercaptopropionic acid (3-MPA)-induced tonic extension in mice; assay: protection against 3-mercaptopropionic acid (3-MPA)-induced tonic extension in mice; assay type: in vivo; conditions: 100 mg/kg orally, 30 minutes prior to 3-MPA (120 mg/kg s.c.)
Procedure: In the second study the anti-convulsant effect of the compounds of the present invention was examined in two seizure models; bicuculline-induced tonic extension in mice and 3-mercaptopropionic acid (3-MPA)-induced tonic extension in mice.
In the bicuculline study, the ability of the compounds of the present invention to protect against tonic extension (involving rigidity) was evaluated as follows. Each test compound was administered to a group of ten mice at a dose of 10 mg/kg, 3 hours prior to the i.v. administration of bicuculline (0.7 mg/kg). Anticonvulsant activity in this test is expressed as percentage of animals tested. The results are given in Table II, column 6, and indicate that several compounds display significant anticonvulsive activity in this test. The anticonvulsant effect of the compounds has also been tested with respect to the tonic extension induced by 3-mercaptopropionic acid (120 mg/kg subcutaneously) in mice.
In the 3-MPA assay, the compounds of the present invention are administered orally at a dose of 100 mg/kg 30 minutes prior to administration of 3-MPA. Each compound was tested on a group of 5 mice; if more than 1 mouse was protected, a second group of 5 mice was tested.

[3] = system: clonidine-induced depression of locomotor activity and rearing activity; assay: clonidine-induced depression of locomotor activity, open field test in mice; assay type: in vivo; conditions: for minimal effective dose: Mus musculus, 2 hours prior to clonidine 0.3 mg/kg p.o.
Description: The third in vivo study evaluation activity of the compounds of the invention on clonidine induced depression of locomotor activity. The previously-discussed study involving clonidine related to its α2 agonist effects on the brain's regulation of the cardiovascular system. The present study involved clonidine α2 agonist effects on central control of locomotor activity. Clonidine inhibits locomotor activity and rearing activity in the mouse. In this "open field" test, mice are pretreated with the compounds of the present invention at doses of 1 to 10 mg/kg p.o. […] Each compound was evaluated for its ability to antagonize the effect of clonidine. […] Compound No. 1 antagonizes clonidine-induced depression of locomotor activity and rearing activity from 1 mg/kg p.o. and from 3 mg/kg p.o., respectively. The effects of chronic administration of compound No. 1 were also evaluated in this test. In this study, groups of 5-6 mice were treated with compound No. 1 (3 mg/kg p.o.) either twice daily for 14 days (chronic) or with one single dose (acute).

Compound | LD50 at 360 h [1] [mg/kg] | % Inhibition of the Specific Binding at 10^-7 M for α1 Recep. (α1 -adrenergic receptors) [%] | inhibition at 0.1 µM (α2 -adrenergic receptors) [%] | affinity for α2 receptors (in words) (α2 -adrenergic receptors) | anticonvulsant effect versus 3-MPA (in words) [2] | also measured
Cc1ccccc1C(Cc1c[nH]cn1)c1ccccc1 (stereo not drawn) [Compound 12] | 155 | 0 | 71 |  |  | 
Cc1cccc(C(Cc2c[nH]cn2)c2ccccc2)c1 (stereo not drawn) [Compound 9, 4(5)-{[2-(3-methylphenyl)-2-phenyl]ethyl}imidazole] | 155 | 4 | 85 | high affinity |  | 
Clc1ccccc1C(Cc1c[nH]cn1)c1ccccc1 (stereo not drawn) [Compound 13, 4(5)-{[2-(2-chlorophenyl)-2-phenyl]ethyl}imidazole] | 172 | 7 | 81 | high affinity | potent anticonvulsant effect | 
Cc1ccc(C)c(C(Cc2c[nH]cn2)c2ccccc2)c1 (stereo not drawn) [Compound 16] | > 300 | 0 | 31 |  | potent anticonvulsant effect | 
Cc1ccc(C(Cc2c[nH]cn2)c2ccccc2)cc1 (stereo not drawn) [Compound 21] | 350 | 4 | 74 |  |  | 
Fc1ccc(C(Cc2c[nH]cn2)c2ccccc2F)cc1 (stereo not drawn) [Compound 15, 4(5)-{[2-(2-fluorophenyl)-2-(4'-fluorophenyl)]ethyl}imidazole] | 155 | 7 | 77 |  |  | 
Fc1ccc(C(Cc2c[nH]cn2)c2ccccc2)cc1 (stereo not drawn) [Compound 14, 4(5)-{[2-(4-fluorophenyl)-2-phenyl]ethyl}imidazole] | 155 | 0 | 69 |  |  | 
COc1ccc(C(Cc2c[nH]cn2)c2ccccc2)cc1 (stereo not drawn) [Compound 17, 4(5)-{[2-(4-methoxyphenyl)-2-phenyl]ethyl}imidazole] | 350 | 6 | 78 |  |  | 
c1ccc(C(Cc2c[nH]cn2)c2ccccc2)cc1 [Compound 1, 4(5)-(2,2-diphenylethyl)-imidazole] | 155 | 17 | 89 | high affinity | potent anticonvulsant effect | activity in the open field test after chronic administration (in words) ([3]; 3 mg/kg p.o. twice daily 14 days, clonidine 0.15 mg/kg i.p.): at the same level as after acute administration; also recorded: disappeared 24 hours after withdrawal of the drug; minimal effective dose ([3]; mice, read-out: active dose antagonizing clonidine-induced depression of locomotor activity): ≥ 1 mg/kg; minimal effective dose ([3]; mice, read-out: active dose antagonizing clonidine-induced depression of rearing activity): ≥ 3 mg/kg; % Inhibition of the Effect of Clonidine on Locomotor Activity in Mice ([3]; acute, 3 mg/kg p.o., 1 h after last administration, clonidine 0.15 mg/kg i.p.): 52%; % Inhibition of the Effect of Clonidine on Locomotor Activity in Mice ([3]; chronic, 3 mg/kg p.o. twice daily 14 days, 1 h after last administration, clonidine 0.15 mg/kg i.p.): 59%; % Inhibition of the Effect of Clonidine on Locomotor Activity in Mice ([3]; chronic, 3 mg/kg p.o. twice daily 14 days, 24 h after last administration, clonidine 0.15 mg/kg i.p.): 3%; % Inhibition of the Effect of Clonidine on Locomotor Activity in Mice ([3]; chronic, 3 mg/kg p.o. twice daily 14 days, 72 h after last administration, clonidine 0.15 mg/kg i.p.): 5%; accumulation of the compound after chronic administration (in words) ([3]; inferred from open field activity after withdrawal, 14 days twice daily): Accumulation of the compound does not appear to occur; activity in the open field test (in words) ([3]; mice, 1 to 10 mg/kg p.o., clonidine 0.3 mg/kg p.o.): particularly active
CC(c1c[nH]cn1)C(c1ccccc1)c1ccccc1 (stereo not drawn) [Compound 4] | > 300 | 4 | 5 |  |  | 
